Assay: molar heat capacity at constant pressure
Settings: 101.33 kPa, Crystal, Small (less than 1 g) adiabatic calorimetry

Nc1nc2ncc(CNc3ccc(C(=O)N[C@@H](CCC(=O)O)C(=O)O)cc3)nc2c(=O)[nH]1.O.O [folic acid dihydrate]
Settings	molar heat capacity at constant pressure [J/K/mol]
4 K	0.102
5 K	0.2491
6 K	0.5453
6.19 K	0.593
6.38 K	0.655
6.61 K	0.721
6.75 K	0.802
6.92 K	0.887
7 K	0.912
7.08 K	0.945
7.25 K	1.04
7.41 K	1.13
7.57 K	1.252
7.74 K	1.385
7.91 K	1.525
8 K	1.566
8.09 K	1.638
8.26 K	1.768
8.44 K	1.945
8.62 K	2.088
8.81 K	2.306
8.99 K	2.516
9 K	2.515
9.18 K	2.748
9.37 K	2.964
9.57 K	3.161
9.76 K	3.423
9.96 K	3.738
10 K	3.778
10.25 K	4.166
10.62 K	4.708
10.99 K	5.254
11.38 K	5.862
11.76 K	6.483
12.15 K	7.179
12.54 K	7.815
12.94 K	8.333
13.34 K	8.928
13.74 K	9.587
14.14 K	10.14
14.55 K	10.74
14.95 K	11.46
15 K	11.59
15.36 K	12.2
15.77 K	12.88
16.17 K	13.8
16.58 K	14.68
16.99 K	15.55
17.41 K	16.41
17.82 K	17.5
18.23 K	18.49
18.65 K	19.48
19.07 K	20.54
19.48 K	21.69
19.9 K	23.01
20 K	23.04
20.65 K	24.46
21.68 K	27.43
22.72 K	30.51
23.77 K	33.53
24.84 K	36.78
25 K	37.08
25.91 K	40.14
26.99 K	43.46
28.09 K	47.02
29.19 K	50.59
30 K	53.06
30.31 K	54.03
31.67 K	58.43
32.99 K	62.72
34.13 K	66.37
35 K	68.97
35.27 K	70.06
36.42 K	73.12
37.58 K	77.03
38.73 K	80.18
39.9 K	83.86
40 K	84.24
41.07 K	87.28
42.25 K	90.77
43.42 K	94.06
44.6 K	97.24
45 K	98.58
45.79 K	100.6
46.98 K	104.2
48.17 K	107.5
49.36 K	110.7
50 K	112.2
50.59 K	113.9
51.85 K	117.3
53.22 K	120.9
54.67 K	124.8
55.88 K	127.9
57.09 K	131
58.3 K	134.2
59.51 K	137.3
60 K	138.8
60.73 K	140.4
61.94 K	143.5
63.16 K	146.9
64.38 K	150.7
65.6 K	153.5
66.82 K	156.6
68.05 K	160.1
69.27 K	162.8
70 K	164.4
70.5 K	165.1
71.99 K	169.2
74 K	173.6
76.06 K	178.7
78.43 K	183
80 K	186.3
80.89 K	187.7
82.9 K	192.1
84.91 K	195.6
86.92 K	199
88.92 K	202.8
90 K	204.7
90.93 K	206.4
92.93 K	210.3
94.93 K	214
96.93 K	217.8
98.92 K	222.6
100 K	224.7
100.92 K	227
103.4 K	232.2
106.39 K	237.8
109.39 K	242.7
110 K	244.1
112.4 K	248.4
115.42 K	253.8
118.43 K	259.3
120 K	262
121.45 K	264.5
124.48 K	269.8
127.5 K	275.4
130 K	280.1
130.53 K	281.3
133.57 K	286.9
136.6 K	292.2
139.64 K	297.9
140 K	298.3
142.68 K	303.3
145.73 K	308.5
148.77 K	314.4
150 K	316.4
151.82 K	319.5
154.87 K	325
157.92 K	330.4
160 K	334.1
160.98 K	335.8
164.06 K	341.4
167.12 K	346.3
170 K	351.6
170.18 K	351.6
173.24 K	357.2
176.3 K	362.7
179.37 K	368.2
180 K	369
182.43 K	373.5
185.5 K	378.4
188.56 K	383.4
190 K	386.3
191.63 K	389.3
194.69 K	394.9
197.76 K	400.1
200 K	403.7
200.82 K	404.6
203.89 K	410.4
207.45 K	417
210 K	421.1
211.53 K	423.5
215.66 K	431.6
219.74 K	437.6
220 K	438.6
223.82 K	445.1
227.89 K	452.3
230 K	456.1
231.96 K	459.5
236.04 K	466.9
240 K	473.7
240.12 K	474.5
244.2 K	481.2
248.27 K	487.4
250 K	491.2
252.34 K	495.1
256.41 K	502.6
260 K	508.6
260.47 K	509.7
264.53 K	516.2
268.59 K	523.3
270 K	525.9
272.64 K	530.3
273.15 K	531.3
276.68 K	537.3
280 K	543.1
280.75 K	545.1
284.78 K	550.6
288.79 K	558.6
290 K	560.3
292.8 K	565.2
296.8 K	571.5
298.15 K	574.4
300 K	577.6
300.78 K	578.9
306.79 K	590
310 K	595.2
312.24 K	599.4
320 K	613.1
320.03 K	612.7
326.53 K	625.5
330 K	631.7
332.98 K	637.3
333 K	637.5
